Marks after values point to notes of the source that are not given here.

This assay deals with red table grapes. The experiment in a line: Grape color in Color Index units for Red Grapes (CIRG) after application to grape plants. The note with it: 500 ppm. The format is in vivo, Vitis vinifera. How it is done: Control of coloration by means of OGAs determines a new use of these polymers which ensure a controlled ripening and effective coloring, which provide a high quality in table grapes. OGAs were obtained by enzymatic hydrolysis of polygalacturonic acid (PGA), stopping the reaction by heating to 100° C. for 30 minutes. Partial purification was performed by using an ultra-filtration equipment to recover OGAs in the range of 5-10 KDa. For the comparison of the degree of polymerization of 7-20 GP, these were compared with external standards. OGAs were frozen using liquid nitrogen in order to obtain a powdered mixture, which was applied to grape plants in a particular proportion. Six treatments were used: three using different concentrations of OGAs, methyl jasmonate (MeJa), Ethrel and a control (water).
To determine the best way to control the red color in grapes, a series of experiments was performed, wherein doses of the mixture, application times, application conditions, and periods of application were tested, finding that the results are obtained: when the mixture was applied in an amount of 0.25 L per plant during the morning at a temperature of 18-20° C. for a period of two days during the veraison period.

Regarding `CC/C=C\CC1C(=O)CCC1CC(=O)OC` (stereo not shown) [MeJa, methyl jasmonate], the “grape color (CIRG)” value is recorded as 1.13^a CIRG (1 day post-application); 2.20^a CIRG (5 days post-application); 3.41^a CIRG (10 days post-application); 3.20^a CIRG (15 days post-application); 3.31^b CIRG (20 days post-application).
Taken in the same sequence, the figures for `O=P(O)(O)CCCl` [Ethrel, 2-chloroethyl phosphonic acid] were 1.17^a CIRG, 2.44^a CIRG, 2.96^a CIRG, 3.37^a CIRG and 3.76^a CIRG.

The record behind these values is patent US20110281728A1, “METHOD FOR CONTROLLING COLORATION IN TABLE GRAPES BASED ON OLIGOGALACTURONIDES” (CENTRO DE INVESTIGACION EN ALIMENTACION Y DESARROLLO A.C., priority 2008, published 2011).
